Experimental data published in patent US8410109B2, “Pharmaceutical compositions for the prevention and treatment of complex diseases and their delivery by insertable medical devices” (Resverlogix Corp., priority 2005, dated 2013).
Structures can show the parent of a compound that is named as a salt.

Columns and labels:
MCP-1 = MCP-1 ELISA on culture media of TNF-α stimulated HUVECs; format: cell-based; conditions: Homo sapiens, HUVEC, approx. 16 hours
Method: (§1) Compounds were dissolved in DMSO, aliquoted, and stored at −20° C. Cultured human vascular endothelial cells (HUVECs) were seeded in 96-well plates in complete EGM-2 media (˜100 μL/well); cells were plated at ˜2-3×10^5/mL, and were from passage 8 to 12. Cells were incubated overnight. On the following day cells are stimulated with TNF-α (˜1 ng/mL) in the presence or absence of compounds dissolved in DMSO. Triplicate wells were used for each test. To establish a dose curve and an IC50, multiple concentrations in 2- to 5-fold increments were used. Cells were exposed to TNF-α and compounds for approximately 16 hours. The next day, cells were visually examined via light microscopy to score for visual signs of toxicity. Cell culture media was analyzed using an MCP-1 ELISA. Cells were refed (−100 μL/well) with 20% CellTiter 96. Aqueous One Cell Proliferation Solution (Promega), 80% EGM-2 medium. Media optical density (at 490 nm) was determined after 1 hour. Plates were aspirated and cell lysates were prepared and these lysates were tested using a VCAM-1 ELISA.
(§2) In Table 2, a positive result (+) was defined as at least 50% inhibition of the protein levels MCP-1 or VCAM-1, as determined by the ELISA.

VCAM-1 = VCAM-1 ELISA on lysates of TNF-α stimulated HUVECs; format: cell-based; conditions: Homo sapiens, HUVEC, approx. 16 hours
Method: as §1, §2

[1] = system: Human coronary artery smooth muscle cells (CASMCs); assay: Smooth muscle cell proliferation protocol; format: cell-based; conditions: 72 hours, read-out: % Inhibition of SMC Proliferation
Method: Compounds were dissolved in DMSO, aliquoted, and stored at −20° C. Human coronary artery smooth muscle cells (CASMCs) were plated in 96-well plates and were grown in SmBM-2 media. After 1-2 hours, media was aspirated and replaced with serum-free ME/F12 media, except the controls. Cells were incubated for a further 48 hours. Compounds were diluted in DME/F12 containing 10% FBS. Media was aspirated from the plates and compounds in DME/F12 containing 10% FBS. Six wells were used per condition and duplicate plates were used. Cells were incubated for a further 72 hours. Media was aspirated from one set of plates; those cells were refed (˜100 μL/well) with 20% CellTiter 96 Aqueous One Cell Proliferation Solution (Promega), 80% EGM-2 medium. Media optical density (at 490 nm) was determined after 3-4 hours. In the second set of plates, serum-free DME/F12 media (20 μL) was added to each well. Part of the supernatant (50 μL) was removed and placed in an ELISA plate and was stored temporarily at 4° C. The remaining media and cells in the second set of plates were freeze-thawed for four cycles. The lysates and supernatants were mixed and centrifuged. Part of the supernatant (50 μL) was removed and placed in an ELISA plate. The Promega Cytotox assay was performed on the ELISA plates. The ratio of supernatant OD to supernatant+cell lysate OD was determined.
In Table 2, a positive result (+) was defined as at least 40% inhibition of the proliferation of SMC, as determined by the assay.

Row | melting point | SMILES | inhibition at 50 µM (MCP-1) | inhibition at 50 µM (VCAM-1) | inhibition at 50 µM [1] | inhibition at 10 µM (MCP-1; 10 uM) | inhibition at 10 µM (VCAM-1; 10 uM) | inhibition at 10 µM ([1]; 10 uM)
1 | 234 to 235 °C | COc1cc(OC)c2c(=O)cc(-c3ccncc3)oc2c1 (as salt: hydrochloride) [EXAMPLE 34, 5,7-dimethoxy-2-(pyridin-4-yl)-4H-chromen-4-one hydrochloride] |  |  |  |  |  | 
2 | 294 to 296 °C | O=c1cc(-c2ccccc2)oc2ncc(CN3CCCC3)cc12 (as salt: hydrochloride) [EXAMPLE 35, 2-phenyl-6-(pyrrolidin-1-ylmethyl)-4H-pyrano[2,3-b]pyridin-4-one hydrochloride] |  |  |  |  |  | 
3 | 265 to 268 °C | O=c1cc(-c2ccc(F)cc2)oc2ncc(CN3CCCC3)cc12 (as salt: hydrochloride) [EXAMPLE 37, 2-(4-fluorophenyl)-6-(pyrrolidin-1-ylmethyl)-4H-pyrano[2,3-b]pyridin-4-one hydrochloride] |  |  |  |  |  | 
4 | > 350 °C | Cc1cc(-c2cc3ncccc3c(=O)[nH]2)cc(C)c1O (as salt: hydrochloride) [EXAMPLE 40, 7-(4-hydroxy-3,5-dimethylphenyl)-1,6-naphthyridin-5(6H)-one hydrochloride] |  |  |  |  |  | 
5 | > 330 °C | COc1cc(O)nc2cc(-c3cc(C)c(O)c(C)c3)[nH]c(=O)c12 (as salt: hydrochloride) [EXAMPLE 41, 2-hydroxy-7-(4-hydroxy-3,5-dimethylphenyl)-4-methoxy-1,6-naphthyridin-5(6H)-one dihydrochloride] |  |  |  |  |  | 
6 | 294 to 296 °C | O=c1cc(-c2ccc(O)cc2)oc2cnccc12 [EXAMPLE 3, 2-(4-Hydroxyphenyl)-pyrano[2,3-c]pyridin-one] | < 50% | < 50% | ≥ 40% |  |  | 
7 | 300 to 302 °C | Cc1cc(-c2cc(=O)c3cccnc3o2)ccc1O [EXAMPLE 5, 2-(4-Hydroxy-3-methylphenyl)-4H-pyrano[2,3-b]pyridine-4-one] |  |  |  | < 50% | < 50% | < 40%
8 | 306 to 308 °C | O=c1cc(-c2ccc(O)cc2)oc2ccncc12 [EXAMPLE 6, 2-(4-Hydroxyphenyl)-4H-pyrano[3,2-c]pyridin-4-one] | < 50% | ≥ 50% | ≥ 40% |  |  | 
9 | 259 to 262 °C | O=c1cc(-c2ccc(O)c(Cl)c2)oc2ncccc12 [EXAMPLE 7, 2-(3-Chloro-4-hydroxyphenyl)-4H-pyrano[2,3-b]pyridine-4-one] | ≥ 50% | ≥ 50% | ≥ 40% |  |  | 
10 | 253 to 255 °C | COc1cc(-c2cc(=O)c3cccnc3o2)ccc1O [EXAMPLE 8, 2-(4-Hydroxy-3-methoxyphenyl)-4H-pyrano[2,3-b]pyridine-4-one] | < 50% | ≥ 50% | < 40% |  |  | 
11 | 218 to 219 °C | Oc1ccc(-c2cc3ccccc3cn2)cc1 [EXAMPLE 15, 4-Isoquinolin-3-yl-phenol] | < 50% | ≥ 50% | < 40% |  |  | 
12 | 289 to 291 °C | COc1cccc2c(=O)[nH]c(-c3ccc(O)c(F)c3)cc12 [EXAMPLE 18, 3-(3-Fluoro-4-hydroxyphenyl)-5-methoxyisoquinolin-1(2H)-one] | ≥ 50% | ≥ 50% | ≥ 40% |  |  | 
13 | 245 to 247 °C | COc1cc(OC)c2c(=O)[nH]c(-c3ccc(O)cc3)cc2c1 [EXAMPLE 19, 3-(4-Hydroxyphenyl)-6,8-dimethoxyisoquinolin-1(2H)-one] | ≥ 50% | < 50% | ≥ 40% |  |  | 
14 | 239 to 241 °C | O=c1[nH]c(-c2ccc(O)cc2)cc2ccccc12 [EXAMPLE 21, 3-(4-Hydroxyphenyl)-2H-isoquinolin-1-one] | ≥ 50% | ≥ 50% | ≥ 40% |  |  | 

More lines, now with the values behind:

Row | SMILES | melting point | inhibition at 50 µM (MCP-1) | inhibition at 50 µM (VCAM-1) | inhibition at 50 µM [1] | inhibition at 10 µM (MCP-1; 10 uM) | inhibition at 10 µM (VCAM-1; 10 uM) | inhibition at 10 µM ([1]; 10 uM)
15 | CN(C)CCOc1ccc(-c2cc(=O)c3cccnc3o2)cc1 (as salt: hydrochloride) [EXAMPLE 27, 2-(4-(2-(dimethylamino)ethoxy)phenyl)-4H-pyrano[2,3-b]pyridin-4-one dihydrochloride] | 236 to 238 °C |  |  |  |  |  | 
16 | O=c1cc(-c2ccncc2)oc2ncccc12 (as salt: hydrochloride) [EXAMPLE 30, 2-(pyridin-4-yl)-4H-pyrano[2,3-b]pyridin-4-one hydrochloride] | 248 to 250 °C |  |  |  |  |  | 
17 | Cc1cc(-c2cc(=O)c3cccnc3o2)cc(C)c1OCCN1CCOCC1 (as salt: hydrochloride) [EXAMPLE 31, 2-(3,5-dimethyl-4-(2-morpholinoethoxy)phenyl)-4H-pyrano[2,3-b]pyridin-4-one hydrochloride] | 276 to 278 °C |  |  |  |  |  | 
18 | Cc1cc(-c2cc(=O)c3cc(CN4CCCC4)cnc3o2)cc(C)c1O (as salt: hydrochloride) [EXAMPLE 33, 2-(4-hydroxy-3,5-dimethylphenyl)-6-(pyrrolidin-1-ylmethyl)-4H-pyrano[2,3-b]pyridin-4-one dihydrochloride] | 337 to 338 °C |  |  |  |  |  | 
19 | Nc1ccc(-c2cc(=O)c3cccnc3o2)cc1 (as salt: hydrochloride) [EXAMPLE 38, 2-(4-aminophenyl)-4H-pyrano[2,3-b]pyridin-4-one hydrochloride] | 254 to 255 °C |  |  |  |  |  | 
20 | CNc1nc(-c2cc(C)c(O)c(C)c2)cc2ccc(CN3CCN(C)CC3)cc12 (as salt: hydrochloride) [EXAMPLE 43, 2,6-dimethyl-4-(1-(methylamino)-7-((4-methylpiperazin-1-yl)methyl)isoquinolin-3-yl)phenol trihydrochloride] | 264 to 266 °C |  |  |  |  |  | 
21 | O=c1cc(-c2ccc(O)c(F)c2)oc2ncccc12 [EXAMPLE 4, 2-(3-Fluoro-4-hydroxyphenyl)pyrano[2,3-b]pyridine-4-one] | 267 to 268 °C | < 50% | ≥ 50% | < 40% |  |  | 
22 | COc1ccc(-c2cc(=O)c3cccnc3o2)cc1 [EXAMPLE 9, 2-(4-Methoxyphenyl)-4H-pyrano[2,3-b]pyridine-4-one] | 269 to 270 °C | < 50% | < 50% | ≥ 40% |  |  | 
23 | O=c1cc(-c2ccc(OCCO)cc2)oc2ncccc12 [EXAMPLE 10, 2-(4-(2-Hydroxyethoxy)phenyl)-4H-pyrano[2,3-b]pyridine-4-one] | 157 to 159 °C | < 50% | < 50% | ≥ 40% |  |  | 
24 | O=c1cc(-c2ccc(O)nc2)oc2ccccc12 [EXAMPLE 13, 2-(6-Hydroxypyridin-3-yl)-chromen-4-one] | 296 to 297 °C | < 50% | ≥ 50% | ≥ 40% |  |  | 
25 | Cn1c(-c2ccc(O)c(F)c2)cc2ncccc2c1=O [EXAMPLE 16, 7-(3-Fluoro-4-hydroxyphenyl)-6-methyl-1,6-naphthyridin-5(6H)-one] | 182 to 184 °C | < 50% | < 50% | < 40% |  |  | 
26 | CNc1nc(-c2ccc(O)c(F)c2)cc2c(OC)cccc12 [EXAMPLE 17, 2-Fluoro-4-(5-methoxy-1-(methylamino)isoquinolin-3-yl)phenol] | 185 to 187 °C | ≥ 50% | ≥ 50% | < 40% |  |  | 
